# Columns and labels:
# E. Coli = experiment: JIS Z 2801 antimicrobial test of metallic coupons, E. Coli; assay type: cell-based; conditions: clear anodized aluminum coupon, front side; vs control without dendrimer; 24 hours
# Experimental: The AM testing was performed using the standardized JIS Z 2801 method against the Gram negative, E. Coli bacteria. A summary of the procedure is presented below:
# The test microorganism is prepared, usually by growth in a liquid culture medium. • The suspension of test microorganism is standardized by dilution in a nutritive broth (this affords microorganisms the opportunity to proliferate during the test). • Control and test surfaces are inoculated with microorganisms, and then the microbial inoculum is covered with a thin, sterile film. Covering the inoculum spreads it, prevents it from evaporating, and ensures close contact with the antimicrobial surface. • Microbial concentrations are determined at “time zero” by elution followed by dilution and plating to agar. • A control is run to verify that the neutralization/elution method effectively neutralizes the antimicrobial agent in the antimicrobial surface being tested. • Inoculated, covered control and antimicrobial test surfaces are allowed to incubate undisturbed in a humid environment for 24 hours, usually at body temperature. • After incubation, microbial concentrations are determined. Reduction of microorganisms relative to the control surface is calculated.
# S. aureus = experiment: AATCC 100 antimicrobial test of derivatized fabrics, S. aureus; assay type: cell-based; conditions: for % Kill at 4 hours / % Kill at 24 hours: dendrimer attached to cotton fabric, S. aureus; for % kill at 4 hrs.: direct functionalization, ~1×10^6 CFU/mL; for % Kill of laundered fabric (4 hrs.): derivatized cotton
# Experimental: The antimicrobial testing during this effort was performed. […] The mixture is incubated for selected times. The mixture is then diluted with PBS and a bacterial culture (agar plate) is performed. The colony forming units (CFUs) are determined and the results are expressed as kill efficiency (percentage kill relative to the initial concentration).
# K. pneumoniae = experiment: AATCC 100 antimicrobial test of fabrics, K. pneumoniae; assay type: cell-based; conditions: for AM efficacy against K. Pneumoniae (FIG. 37): derivatized cotton swatches
# Experimental: (§1) The antimicrobial testing during this effort was performed. The evaluation of the AM efficacy has been performed using a standard method, based on the AATCC 100 protocol.
# (§2) The experimental procedure starts with 1 mL of a bacterial culture (S. aureus representative for Gram positive bacteria or K. pneumoniae representative for Gram negative bacteria) which is inoculated to 2-3 fabric swatches (full absorption). The mixture is incubated for selected times. The mixture is then diluted with PBS and a bacterial culture (agar plate) is performed. The colony forming units (CFUs) are determined and the results are expressed as kill efficiency (percentage kill relative to the initial concentration).
# The silver fabrics are considered to be the state-of the art in the realm of AM textiles. Two silver-based consumer products (cotton fabrics) were selected for evaluation of their AM properties compared to those of QAC-I derivatized cotton. The first material comprised a silver-shirt which contained silver nanoparticles. The second material was a silver-towel which contained a permanent coating of silver ions. Swatches of both products were generated and the antimicrobial efficacy was tested using the AATCC 100 protocol (K. Pneumoniae at 4, 24 and 48 hrs. time points).
# S. Epidermisis = experiment: Broad spectrum AM testing of derivatized cotton, S. Epidermisis; assay type: cell-based; conditions: derivatized cotton fabrics
# Experimental: as §1, §2
# (§3) The QAC-I derivatized cotton fabrics were evaluated against several strains of Gram positive and Gram negative bacteria and one fungus (C. Albicans).
# C. Albicans = experiment: Broad spectrum AM testing of derivatized cotton, C. Albicans; assay type: cell-based; conditions: derivatized cotton fabrics
# Experimental: as §1, §2, §3
# [1] = system: C. Difficile (vegetative); experiment: Additional AM testing of derivatized cotton, C. Difficile vegetative cells; assay type: cell-based; conditions: derivatized cotton fabrics
# C. Difficile (spores) = experiment: Additional AM testing of derivatized cotton, C. Difficile spores; assay type: cell-based; conditions: derivatized cotton fabrics
# MRSA = experiment: Additional AM testing of derivatized cotton, MRSA; assay type: cell-based; conditions: derivatized cotton fabrics
# MS2 = conditions: derivatized cotton fabrics
# Text: Cotton fabrics derivatized with imidazolium dendrimer were further evaluated for the AM efficacy against other pathogens.
# [2] = system: skin of New Zealand White rabbits; experiment: Direct Primary Skin Irritation Test - ISO; assay type: in vivo
# Experimental: Cotton fabrics derivatized with QAC-I dendrimer was evaluated at Toxikon for skin irritation using a GLP protocol based on “Direct Primary Skin Irritation Test—ISO”. The test article was evaluated for its potential to produce primary skin irritation after a single topical minimum 4 hour application to the skin of New Zealand White rabbits. Test sites were scored for erythema and/or edema.
smiles,measurement,setting,value
CCCCCCCCCCn1cc[n+](CCNC(=O)NCCCNC(=O)CCN(CCCNC(=O)CCN(CCC(=O)NCCCN(CCC(=O)NCCCNC(=O)NCC[n+]2ccn(CCCCCCCCCC)c2C)CCC(=O)NCCCNC(=O)NCC[n+]2ccn(CCCCCCCCCC)c2C)CCc2ccc(NC(=O)CP(=O)(O)O)cc2)CCC(=O)NCCCNC(=O)NCC[n+]2ccn(CCCCCCCCCC)c2C)c1C.[Cl-].[Cl-].[Cl-].[Cl-] [AM compound (1)],log reduction of the inoculum,E. Coli,> 6 log
same,reduction of the inoculum (%),E. Coli,> 99.9999%
CCCCCCCCCCCC[N+](C)(C)CCNC(=O)NCCCNC(=O)CCN(CCCNC(=O)CCN(CCC(=O)NCCCN(CCC(=O)NCCCNC(=O)NCC[N+](C)(C)CCCCCCCCCCCC)CCC(=O)NCCCNC(=O)NCC[N+](C)(C)CCCCCCCCCCCC)CCc1ccc(Nc2nc(Cl)nc(Cl)n2)cc1)CCC(=O)NCCCNC(=O)NCC[N+](C)(C)CCCCCCCCCCCC.[Cl-].[Cl-].[Cl-].[Cl-] [QAC-4],% Kill at 4 hours,S. aureus,>99%
same,% Kill at 24 hours,S. aureus,62%
same,AM efficacy against K. Pneumoniae (FIG. 37),K. pneumoniae,very high efficacy
CCCCCCCCCCCCCCCCCC[N+](C)(C)CCNC(=O)NCCCNC(=O)CCN(CCCNC(=O)CCN(CCC(=O)NCCCN(CCC(=O)NCCCNC(=O)NCC[N+](C)(C)CCCCCCCCCCCCCCCCCC)CCC(=O)NCCCNC(=O)NCC[N+](C)(C)CCCCCCCCCCCCCCCCCC)CCc1ccc(Nc2nc(Cl)nc(Cl)n2)cc1)CCC(=O)NCCCNC(=O)NCC[N+](C)(C)CCCCCCCCCCCCCCCCCC.[Cl-].[Cl-].[Cl-].[Cl-] [QAC-C18],% Kill at 4 hours,S. aureus,78%
same,% Kill at 24 hours,S. aureus,11%
CCCCCCCCCCCC[N+](C)(CCCCCCCCCCCC)CCNC(=O)NCCCNC(=O)CCN(CCCNC(=O)CCN(CCC(=O)NCCCN(CCC(=O)NCCCNC(=O)NCC[N+](C)(CCCCCCCCCCCC)CCCCCCCCCCCC)CCC(=O)NCCCNC(=O)NCC[N+](C)(CCCCCCCCCCCC)CCCCCCCCCCCC)CCc1ccc(Nc2nc(Cl)nc(Cl)n2)cc1)CCC(=O)NCCCNC(=O)NCC[N+](C)(CCCCCCCCCCCC)CCCCCCCCCCCC.[Cl-].[Cl-].[Cl-].[Cl-] [QAC-D],% Kill at 4 hours,S. aureus,−38%
CCCCCCCCCCn1cc[n+](CCNC(=O)NCCCNC(=O)CCN(CCCNC(=O)CCN(CCC(=O)NCCCN(CCC(=O)NCCCNC(=O)NCC[n+]2ccn(CCCCCCCCCC)c2C)CCC(=O)NCCCNC(=O)NCC[n+]2ccn(CCCCCCCCCC)c2C)CCc2ccc(Nc3nc(Cl)nc(Cl)n3)cc2)CCC(=O)NCCCNC(=O)NCC[n+]2ccn(CCCCCCCCCC)c2C)c1C.[Cl-].[Cl-].[Cl-].[Cl-] [QAC-I],% Kill at 4 hours,S. aureus,>99%
same,% Kill at 24 hours,S. aureus,>99%
same,% kill at 4 hrs.,S. aureus; derivatized NYCO fabric,> 99%
same,AM Efficacy (max.),"S. aureus; derivatized cotton fabrics, S. Aureus",>99.999%
same,% Kill of laundered fabric (4 hrs.),"S. aureus; reverse protocol, laundering detergent None, S. Aureus, % kill relative to final amount of bacteria",>99.99%
same,% Kill of laundered fabric (4 hrs.),"S. aureus; 1 accelerated cycle 45 minutes at 49° C., Tide 0.23% w/v, S. Aureus",24%
same,% Kill of laundered fabric (4 hrs.),"S. aureus; 1 accelerated cycle 45 minutes at 49° C., Tween-20 0.23% w/v, S. Aureus",>99.99%
same,% kill at 4 hrs.,S. aureus; derivatized polyester fabric,> 99%
same,AM Efficacy (max.),"K. pneumoniae; derivatized cotton fabrics, K. Pneumoniae",>99.99%
same,AM efficacy against K. Pneumoniae (FIG. 37),K. pneumoniae,very high efficacy
same,AM Efficacy (max.),S. Epidermisis,>99.99%
same,AM Efficacy (max.),C. Albicans,>99.99%
same,% Reduction,[1],99.20%
same,% Reduction,C. Difficile (spores),99.82%
same,% Reduction,MRSA,99.80%
same,% Reduction,MS2,99.95%
same,Skin irritation classification,[2]; criteria of the protocol,negligible irritant
same,Edema score,"[2]; test sites, 24 Hours, Site 1",0/0
same,Erythema score,"[2]; test sites, 24 Hours, Site 1",0/0
same,Edema score,"[2]; test sites, 24 Hours, Site 2",0/0
same,Erythema score,"[2]; test sites, 24 Hours, Site 2",0/0
same,Edema score,"[2]; test sites, 48 Hours, Site 1",0/0
same,Erythema score,"[2]; test sites, 48 Hours, Site 1",0/0
same,Edema score,"[2]; test sites, 48 Hours, Site 2",0/0
same,Erythema score,"[2]; test sites, 48 Hours, Site 2",0/0
same,Edema score,"[2]; test sites, 60 Minutes, Site 1",0/0
same,Erythema score,"[2]; test sites, 60 Minutes, Site 1",0/0
same,Edema score,"[2]; test sites, 60 Minutes, Site 2",0/0
same,Erythema score,"[2]; test sites, 60 Minutes, Site 2",0/0
same,Edema score,"[2]; test sites, 72 Hours, Site 1",0/0
same,Erythema score,"[2]; test sites, 72 Hours, Site 1",0/0
same,Edema score,"[2]; test sites, 72 Hours, Site 2",0/0
same,Erythema score,"[2]; test sites, 72 Hours, Site 2",0/0
same,Total (Erythema + Edema Scores)/(2 Test Sites × 3 Observation Points),"[2]; test sites, per animal, 60 minute scores not included",0.0
